# Target: T1, ΔF508 CFTR (Homo sapiens, UniProt P13569, DEL508-508)
# Assay: Corrector activity, YFP halide (iodide) quenching assay in FRT cells expressing ΔF508 CFTR
# Assay type: cell-based
# Parameters: expressed in transfected cells; host or cells: Fischer rat thyroid (FRT) cells
# Conditions: FRT cells ΔF508 CFTR/YFP, 24 hours with compound at 37° C., forskolin and genistein; read-out: Corrector EC50
# Protocol: Fisher rat thyroid (FRT) cells stably expressing ΔF508 CFTR and a halide-sensitive variant of yellow fluorescent protein (YFP) were seeded into microtiter plates and allowed to grow for 24 hours at 37° C. and 5% CO2. See Pedemonte et al., J. Clin. Invest. […] Compounds in dimethylsulfoxide (DMSO) solution were pre-diluted into cell culture medium, the medium was removed from cells, and then fresh medium containing the compounds was applied. The cells were incubated for a further 24 hours at 37° C. and 5% CO2.
# Activity of CFTR was assayed by removing the medium, washing the cell monolayer with phosphate-buffered saline solution (PBS), and then applying PBS containing forskolin and genistein. After 30 min incubation at 37° C., the plates were placed in a fluorescence plate reader equipped with a reagent injector.
# Corrector activity was calculated as follows. Normalized endpoint fluorescence was calculated by dividing the endpoint fluorescence after iodide injection by the initial fluorescence reading and multiplication by 100. Corrector EC50 values were calculated from the activity vs. concentration data using a 4-parameter log fit. The bottom of the curve was constrained to zero activity (DMSO control) while the slope, EC50, and top of the curve were fitted to the data. The EC50 was determined as the concentration that corresponds to the inflection point of the fitted curve.
# T1 sequence (P13569 with tags, fused parts or gaps DEL508-508): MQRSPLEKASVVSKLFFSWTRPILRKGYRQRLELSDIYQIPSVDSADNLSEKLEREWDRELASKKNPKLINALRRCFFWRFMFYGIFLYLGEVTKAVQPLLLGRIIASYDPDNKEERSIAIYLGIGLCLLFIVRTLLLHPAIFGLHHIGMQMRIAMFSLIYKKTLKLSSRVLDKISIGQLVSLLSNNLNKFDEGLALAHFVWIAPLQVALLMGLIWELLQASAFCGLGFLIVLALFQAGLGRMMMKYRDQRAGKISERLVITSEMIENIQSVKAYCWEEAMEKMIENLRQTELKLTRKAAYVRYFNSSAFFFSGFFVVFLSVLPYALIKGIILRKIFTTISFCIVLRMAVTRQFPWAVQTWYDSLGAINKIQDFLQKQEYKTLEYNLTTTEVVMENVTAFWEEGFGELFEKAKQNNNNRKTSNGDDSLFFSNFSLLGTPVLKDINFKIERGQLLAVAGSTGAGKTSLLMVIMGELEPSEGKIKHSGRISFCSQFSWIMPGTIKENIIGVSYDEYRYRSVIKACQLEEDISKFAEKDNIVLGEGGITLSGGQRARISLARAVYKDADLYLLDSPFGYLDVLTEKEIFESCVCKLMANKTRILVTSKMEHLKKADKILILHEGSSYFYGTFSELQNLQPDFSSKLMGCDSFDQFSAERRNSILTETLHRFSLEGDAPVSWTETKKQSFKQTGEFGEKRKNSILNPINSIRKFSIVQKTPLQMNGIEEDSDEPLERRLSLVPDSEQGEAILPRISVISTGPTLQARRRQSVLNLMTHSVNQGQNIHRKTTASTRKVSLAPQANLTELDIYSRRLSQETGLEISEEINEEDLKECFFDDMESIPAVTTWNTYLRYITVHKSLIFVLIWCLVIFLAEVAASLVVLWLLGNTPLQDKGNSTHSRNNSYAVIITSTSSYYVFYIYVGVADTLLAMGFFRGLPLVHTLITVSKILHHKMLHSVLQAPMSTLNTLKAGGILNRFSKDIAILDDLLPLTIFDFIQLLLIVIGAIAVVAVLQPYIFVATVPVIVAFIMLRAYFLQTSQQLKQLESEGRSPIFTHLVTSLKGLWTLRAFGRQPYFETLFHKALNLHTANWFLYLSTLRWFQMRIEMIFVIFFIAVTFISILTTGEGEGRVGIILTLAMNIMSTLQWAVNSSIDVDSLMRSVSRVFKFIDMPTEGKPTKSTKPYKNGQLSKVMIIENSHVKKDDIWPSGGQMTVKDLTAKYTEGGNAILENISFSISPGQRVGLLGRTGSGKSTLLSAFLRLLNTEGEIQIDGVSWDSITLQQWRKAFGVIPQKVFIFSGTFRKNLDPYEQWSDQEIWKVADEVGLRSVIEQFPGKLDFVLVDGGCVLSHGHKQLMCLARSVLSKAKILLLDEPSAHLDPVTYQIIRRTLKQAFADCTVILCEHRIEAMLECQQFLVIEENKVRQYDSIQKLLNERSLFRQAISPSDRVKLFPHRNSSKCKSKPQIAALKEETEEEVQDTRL
row,Compound,EC50
1,"Nc1ncnc2c1c(-c1ccc(Cl)cc1)cn2CC1CC1 [Compound No. 242, 5-(4-Chloro-phenyl)-7-cyclopropylmethyl-7H-pyrrolo[2,3-d]pyrimidin-4-ylamine]",< 2 µM
2,"CC(C)(C)n1cc(-c2ccc(Cl)cc2)c2c(N)ncnc21 [Compound No. 261, 7-tert-Butyl-5-(4-chloro-phenyl)-7H-pyrrolo[2,3-d]pyrimidin-4-ylamine]",< 2 µM
3,"CC(C)(C)OC(=O)N1CC(n2nc(-c3ccc(Cl)cc3)c3c(N)ncnc32)C1 [Compound No. 267, 3-[4-Amino-3-(4-chloro-phenyl)-pyrazolo[3,4-d]pyrimidin-1-yl]-azetidine-1-carboxylic acid tert-butyl ester]",> 15 µM
4,"CC(C)(C)n1nc(-c2ccc(Cl)cc2)c2c(NS(C)(=O)=O)ncnc21 [Compound No. 274, N-[1-tert-Butyl-3-(4-chloro-phenyl)-1H-pyrazolo[3,4-d]pyrimidin-4-yl]-methanesulfonamide]",2 to 5 µM
5,"COC(=O)Nc1ncnc2c1c(-c1ccc(Cl)cc1)nn2C(C)(C)C [Compound No. 294, [1-tert-Butyl-3-(4-chloro-phenyl)-1H-pyrazolo[3,4-d]pyrimidin-4-yl]-carbamic acid methyl ester]",> 15 µM
6,CC(=O)Nc1ncnc2c1c(-c1ccc(Cl)cc1)cn2C(C)(C)C [compound 372],2 to 5 µM
7,CN1CCC(C(=O)Nc2ncnc3c2c(-c2ccc(Cl)cc2)cn3C(C)(C)C)C1 (stereo not shown) [compound 375],< 2 µM
8,CC(C)(C)n1cc(-c2ccc(Cl)cc2)c2c(NC(=O)C3CCCO3)ncnc21 (stereo not shown) [compound 376],2 to 5 µM
9,CC(C)(C)C(=O)Nc1ncnc2c1c(Oc1cccc(Cl)c1)nn2C(C)(C)C [compound 377],> 15 µM
10,CN1CCC(n2nc(-c3ccc(Cl)cc3)c3c(N)ncnc32)CC1 [compound 378],> 15 µM
11,CN1CC[C@H](n2nc(-c3ccc(Cl)cc3)c3c(N)ncnc32)C1 [compound 379],> 15 µM
12,CN1CC(n2nc(Sc3cccc(Cl)c3)c3c(N)ncnc32)C1 [compound 382],> 15 µM
13,CN1CC(n2nc(Sc3ccccc3)c3c(N)ncnc32)C1 [compound 383],> 15 µM
14,CC(C)N1CC(n2nc(Sc3ccccc3)c3c(N)ncnc32)C1 [compound 384],> 15 µM
15,CCOC(=O)N1CCC(n2nc(Oc3ccccc3)c3c(N)ncnc32)CC1 [compound 386],> 15 µM
16,CC(C)(C)C(=O)Nc1ncnc2c1cnn2C(C)(C)C [compound 389],> 15 µM

row,Compound,EC50
1,CC(C)C(=O)Nc1ncnc2c1cnn2C(C)(C)C [compound 390],> 15 µM
2,CCn1nc([S+]([O-])c2cccc(Br)c2)c2c(N)ncnc21 (stereo not shown) [compound 392],> 15 µM
3,CC(C)(C)n1nc(-c2ccc(Cl)cc2)c2c(NC(=O)C3CCOC3)ncnc21 (stereo not shown) [compound 393],5 to 10 µM
4,CC(C)C(=O)C(=O)Nc1ncnc2c1c(-c1ccc(Cl)cc1)nn2C(C)(C)C [compound 394],> 15 µM
5,CC(C)(C)n1nc(-c2ccc(Cl)cc2)c2c(NC(=O)C3CC3)ncnc21 [compound 396],5 to 10 µM
6,CC(C)(C)n1cc(-c2ccc(Cl)cc2)c2c(NC(=O)N3CCCC3)ncnc21 [compound 399],> 15 µM
7,CC(C)(C)n1nc(Oc2cccc(Cl)c2)c2c(NC(=O)N3CCCC3)ncnc21 [compound 400],> 15 µM
8,CCOC(=O)N1CC(n2nc(Oc3cccc(Cl)c3)c3c(N)ncnc32)C1 [compound 403],> 15 µM
9,CC(=O)N1CC(n2nc([S+]([O-])c3ccccc3)c3c(N)ncnc32)C1 (stereo not shown) [compound 404],> 15 µM
10,CCOC(=O)N1CC(n2nc([S+]([O-])c3ccccc3)c3c(N)ncnc32)C1 (stereo not shown) [compound 405],> 15 µM
11,Nc1ncnc2c1c(Sc1ccccc1)nn2C1CNC1 [compound 416],> 15 µM
12,CCNC(=O)N1CC(n2nc([S+]([O-])c3ccccc3)c3c(N)ncnc32)C1 (stereo not shown) [compound 419],> 15 µM
13,CCNC(=O)Nc1ncnc2c1c(Cc1cccc(Cl)c1)nn2C1CN(C(=O)NCC)C1 [compound 424],> 15 µM
14,CC(C)(C)n1nc(Br)c2c(N(C(=O)c3ccccc3)C(=O)c3ccccc3)ncnc21 [compound 425],2 to 5 µM
15,CC(C)C(=O)N(C(=O)C(C)C)c1ncnc2c1c(Br)nn2C(C)(C)C [compound 426],5 to 10 µM

# More lines, now with the values ahead:
row,EC50,Compound
1,2 to 5 µM,CC(=O)N(C(C)=O)c1ncnc2c1c(-c1ccc(Cl)cc1)nn2C(C)(C)C [Compound No. 97]
2,> 15 µM,"Nc1ncnc2[nH]nc(Oc3cccc(Cl)c3)c12 [Compound No. 220, 3-(3-Chloro-phenoxy)-1H-pyrazolo[3,4-d]pyrimidin-4-ylamine]"
3,> 15 µM,"CCNC(=O)N1CC(n2nc(-c3ccc(Cl)cc3)c3c(N)ncnc32)C1 [Compound No. 275, 3-[4-Amino-3-(4-chloro-phenyl)-pyrazolo[3,4-d]pyrimidin-1-yl]azetidine-1-carboxylic acid ethylamide]"
4,< 2 µM,CCC(=O)Nc1ncnc2c1c(-c1ccc(Cl)cc1)cn2C(C)(C)C [compound 371]
5,5 to 10 µM,CC(C)(C)n1cc(-c2ccc(Cl)cc2)c2c(NC(=O)C3CCCO3)ncnc21 (stereo not shown) [compound 373]
6,< 2 µM,CC(C)(C)n1cc(-c2ccc(Cl)cc2)c2c(NC(=O)C3CCOC3)ncnc21 (stereo not shown) [compound 374]
7,> 15 µM,CC(=O)N1CC(n2nc(Oc3cccc(Cl)c3)c3c(N)ncnc32)C1 [compound 380]
8,> 15 µM,CCNC(=O)N1CC(n2nc(Oc3cccc(Cl)c3)c3c(N)ncnc32)C1 [compound 381]
9,> 15 µM,CC(C)(C)OC(=O)N1CC(n2nc([S+]([O-])c3ccccc3)c3c(N)ncnc32)C1 (stereo not shown) [compound 385]
10,> 15 µM,CN1CC(n2nc(Cc3cccc4ccccc34)c3c(N)ncnc32)C1 [compound 387]
11,2 to 5 µM,CC(C)(C)n1cc(-c2ccc(Cl)cc2)c2c(NC(=O)C3CCC3)ncnc21 [compound 391]
12,> 15 µM,CC(C)(C)n1nc(-c2ccc(Cl)cc2)c2c(NC(=O)N3CCCC3)ncnc21 [compound 398]
13,2 to 5 µM,CCn1c(C)c(-c2ccc(Cl)cc2)c2c(N)ncnc21 [compound 401]
14,> 15 µM,CC(C)N1CC(n2nc(Oc3cccc(Cl)c3)c3c(N)ncnc32)C1 [compound 402]
15,> 15 µM,Nc1ncnc2c1c(Oc1cccc(Cl)c1)nn2C1CNC1 [compound 414]
16,> 15 µM,Nc1ncnc2c1c(Sc1cccc(Cl)c1)nn2C1CNC1 [compound 415]
17,> 15 µM,Nc1ncnc2c1c(Oc1ccccc1)nn2C1CCNCC1 [compound 417]
18,> 15 µM,Nc1ncnc2c1c([S+]([O-])c1cccc(Cl)c1)nn2C1CNC1 (stereo not shown) [compound 418]
19,> 15 µM,CC(=O)N1CCC(n2nc(Oc3ccccc3)c3c(N)ncnc32)CC1 [compound 420]
20,2 to 5 µM,CC(C)(C)n1nc(Br)c2c(NC(=O)c3ccccc3)ncnc21 [compound 421]
21,2 to 5 µM,CC(C)(C)C(=O)Nc1ncnc2c1c(Br)nn2C(C)(C)C [compound 422]
22,< 2 µM,CC(C)C(=O)Nc1ncnc2c1c(Br)nn2C(C)(C)C [compound 423]

# Target: T1, ΔF508 CFTR
# Assay: Potentiator activity, YFP halide (iodide) quenching assay in FRT cells expressing ΔF508 CFTR, 27° C. pre-incubation
# Assay type: cell-based
# Parameters: expressed in transfected cells; host or cells: Fischer rat thyroid (FRT) cells
# Conditions: FRT cells ΔF508 CFTR/YFP, 24 hours at 27° C., compound with forskolin 30 min
# Protocol: Fisher rat thyroid (FRT) cells stably expressing ΔF508 CFTR and a halide-sensitive variant of yellow fluorescent protein (YFP) were seeded into microtiter plates and allowed to grow for 24 hours at 37° C. and 5% CO2, as described above. The medium was replaced with fresh medium and the cells were incubated for a further 24 hours at 27° C. and 5% CO2 to increase the level of mutant CFTR at the cell surface.
# Compounds in DMSO solution were pre-diluted into phosphate-buffered saline solution (PBS) containing forskolin. Activity of CFTR was assayed by removing the medium, washing the cell monolayer with PBS, and then applying the compounds diluted in PBS containing forskolin. After 30 min of incubation at 37° C., the plates were placed in a fluorescence plate reader equipped with a reagent injector. After measuring an initial fluorescence value, iodide-containing buffer was injected and the decrease in fluorescence was followed at excitation and emission wavelengths of 485 and 530 nm, respectively.
# Potentiator activity was calculated as follows. Normalized endpoint fluorescence was calculated by dividing the endpoint fluorescence after iodide injection by the initial fluorescence reading and multiplication by 100. Potentiator EC50 values were calculated by the same method as corrector EC50 values.
row,Compound,EC50
1,"Nc1ncnc2c1c(-c1ccc(Cl)cc1)cn2CC1CC1 [Compound No. 242, 5-(4-Chloro-phenyl)-7-cyclopropylmethyl-7H-pyrrolo[2,3-d]pyrimidin-4-ylamine]",2 to 5 µM
2,"CC(C)(C)n1cc(-c2ccc(Cl)cc2)c2c(N)ncnc21 [Compound No. 261, 7-tert-Butyl-5-(4-chloro-phenyl)-7H-pyrrolo[2,3-d]pyrimidin-4-ylamine]",< 2 µM
3,"CC(C)(C)OC(=O)N1CC(n2nc(-c3ccc(Cl)cc3)c3c(N)ncnc32)C1 [Compound No. 267, 3-[4-Amino-3-(4-chloro-phenyl)-pyrazolo[3,4-d]pyrimidin-1-yl]-azetidine-1-carboxylic acid tert-butyl ester]",2 to 5 µM
4,"CC(C)(C)n1nc(-c2ccc(Cl)cc2)c2c(NS(C)(=O)=O)ncnc21 [Compound No. 274, N-[1-tert-Butyl-3-(4-chloro-phenyl)-1H-pyrazolo[3,4-d]pyrimidin-4-yl]-methanesulfonamide]",> 15 µM
5,"COC(=O)Nc1ncnc2c1c(-c1ccc(Cl)cc1)nn2C(C)(C)C [Compound No. 294, [1-tert-Butyl-3-(4-chloro-phenyl)-1H-pyrazolo[3,4-d]pyrimidin-4-yl]-carbamic acid methyl ester]",> 15 µM

# Next, values leading:
row,EC50,Compound
1,2 to 5 µM,CC(=O)N(C(C)=O)c1ncnc2c1c(-c1ccc(Cl)cc1)nn2C(C)(C)C [Compound No. 97]
2,> 15 µM,"Nc1ncnc2[nH]nc(Oc3cccc(Cl)c3)c12 [Compound No. 220, 3-(3-Chloro-phenoxy)-1H-pyrazolo[3,4-d]pyrimidin-4-ylamine]"
3,> 15 µM,"CCNC(=O)N1CC(n2nc(-c3ccc(Cl)cc3)c3c(N)ncnc32)C1 [Compound No. 275, 3-[4-Amino-3-(4-chloro-phenyl)-pyrazolo[3,4-d]pyrimidin-1-yl]azetidine-1-carboxylic acid ethylamide]"
